Some test systems named below: HCT-116 colon; HT29 colon; UACC-62 melanoma; SK-MEL-5 melanoma; SK-OV-3 ovarian; NCI-H460 lung; MCF7 breast; RXF 393 renal; EKVX NSCLC; NCI/ADR-RES ovarian.
Test in all cases: NCI-60 cell line screen, 48 h

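Values below derive from 48-hour exposures of cells grown in 96-well plates, with endpoints linearly interpolated between the two concentrations bracketing the appropriate inhibition level. GI50: concentration for 50% inhibition of growth. Definition used: TGI = concentration required for complete inhibition of growth.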

`COc1cc(-n2cc(-c3ccc(F)cc3)[nH]c2=S)cc(OC)c1OC`: the GI50 in the assay on HCT-116 colon is greater than 100 µM; in the assay with HT29 colon, greater than 100 µM; with UACC-62 melanoma, greater than 100 µM; in the assay with SK-MEL-5 melanoma it was greater than 100 µM; in the assay on SK-OV-3 ovarian it was 38.2 µM; in the assay with NCI-H460 lung, greater than 100 µM. In addition, the GI50 in the assay with MCF7 breast is 55.9 µM; in the assay on RXF 393 renal it was 71.4 µM; with EKVX NSCLC, greater than 100 µM; with NCI/ADR-RES ovarian, greater than 100 µM. In addition, the TGI in the assay on HCT-116 colon, with HT29 colon, in the assay with UACC-62 melanoma, in the assay with SK-MEL-5 melanoma, with SK-OV-3 ovarian and in the assay with NCI-H460 lung was greater than 100 µM each time. Moreover, the TGI in the assay on MCF7 breast, in the assay on RXF 393 renal, with EKVX NSCLC and with NCI/ADR-RES ovarian was greater than 100 µM each time.
Turning to `COc1cc(OC)c2cc(C(=O)O)c(=O)oc2c1`, the GI50 in the assay on HCT-116 colon was greater than 100 µM; with HT29 colon, greater than 100 µM; in the assay with UACC-62 melanoma it was greater than 71.8 µM; with SK-MEL-5 melanoma, greater than 100 µM; in the assay with SK-OV-3 ovarian, greater than 100 µM; in the assay on NCI-H460 lung, greater than 100 µM. Moreover, the GI50 in the assay with MCF7 breast, in the assay on RXF 393 renal, in the assay on EKVX NSCLC and with NCI/ADR-RES ovarian was greater than 100 µM in each case. The TGI with HCT-116 colon, in the assay with HT29 colon, in the assay on UACC-62 melanoma, in the assay with SK-MEL-5 melanoma, in the assay with SK-OV-3 ovarian and in the assay with NCI-H460 lung was greater than 100 µM each time. Further, the TGI in the assay on MCF7 breast, in the assay with RXF 393 renal, with EKVX NSCLC and in the assay on NCI/ADR-RES ovarian was greater than 100 µM in each case.
Regarding `COc1cc2c3c(n(CCCCNC(=O)OCC4c5ccccc5-c5ccccc54)c(=O)c2cc1OC)-c1cc2c(cc1C3=O)OCO2`, the GI50 with HCT-116 colon is 7.73 µM; with HT29 colon, 16.9 µM; in the assay with UACC-62 melanoma it was 45.7 µM; in the assay on SK-MEL-5 melanoma, 23.4 µM; with SK-OV-3 ovarian, greater than 100 µM; in the assay with NCI-H460 lung it was 2.56 µM. For the same compound, the GI50 in the assay with MCF7 breast was 0.554 µM; with RXF 393 renal it was 15.9 µM; with EKVX NSCLC, 87.2 µM; in the assay with NCI/ADR-RES ovarian it was 58.1 µM. In addition, the TGI in the assay with HCT-116 colon was 33.6 µM; with HT29 colon, greater than 100 µM; in the assay with UACC-62 melanoma, greater than 100 µM; with SK-MEL-5 melanoma, greater than 100 µM; in the assay with SK-OV-3 ovarian, greater than 100 µM; in the assay with NCI-H460 lung, 54.2 µM. Besides, the TGI in the assay on MCF7 breast is 16.2 µM; in the assay with RXF 393 renal it was 58.6 µM; in the assay with EKVX NSCLC it was greater than 100 µM; in the assay with NCI/ADR-RES ovarian it was greater than 100 µM.
For the compound `N#CCC12CC=CCC1=C(O)C(=O)c1ccc(O)cc12` (stereo not given), the TGI in the assay with HCT-116 colon, with HT29 colon, with UACC-62 melanoma, in the assay on SK-MEL-5 melanoma, with SK-OV-3 ovarian and in the assay with NCI-H460 lung was greater than 100 µM throughout. Besides, the TGI with MCF7 breast, in the assay on RXF 393 renal, in the assay on EKVX NSCLC and in the assay on NCI/ADR-RES ovarian was greater than 100 µM each time.
For `Oc1ccc2ccccc2c1C(c1ccc(Cl)cc1)c1c(O)ccc2ccccc12`, the TGI in the assay with HCT-116 colon came out at 9.36 µM; with HT29 colon, 9.78 µM; with UACC-62 melanoma, 15.1 µM; in the assay with SK-MEL-5 melanoma, 6.93 µM; in the assay on SK-OV-3 ovarian, 19.9 µM; in the assay with NCI-H460 lung it was 11.3 µM. For the same compound, the TGI in the assay on MCF7 breast is 11.5 µM; in the assay with RXF 393 renal, 8.28 µM; in the assay with EKVX NSCLC it was 7.58 µM; in the assay with NCI/ADR-RES ovarian, 9.46 µM.
As to `Cc1[nH]n(-c2ccc(S(=O)(=O)O)cc2)c(=O)c1N=Nc1ccccc1`, the TGI in the assay with HCT-116 colon, in the assay with HT29 colon, in the assay on UACC-62 melanoma, in the assay with SK-MEL-5 melanoma, with SK-OV-3 ovarian and with NCI-H460 lung was greater than 100 µM in each case. Besides, the TGI with MCF7 breast, in the assay with RXF 393 renal, with EKVX NSCLC and in the assay with NCI/ADR-RES ovarian was greater than 100 µM in each case.
Take `Cc1ccc(/C=C/C(=O)c2ccc(N)cc2)c(C)c1`: the GI50 with HCT-116 colon was 1.91 µM; in the assay on UACC-62 melanoma it was 2.52 µM; with SK-MEL-5 melanoma, 9.47 µM; in the assay with SK-OV-3 ovarian, 16.5 µM; in the assay on NCI-H460 lung it was 14.7 µM; in the assay with MCF7 breast, 8.29 µM. Besides, the figures for the GI50 in the assay on RXF 393 renal, in the assay with EKVX NSCLC and in the assay with NCI/ADR-RES ovarian were 5.56 µM, 19.5 µM and 6.65 µM, respectively. The TGI in the assay on HCT-116 colon is 3.76 µM; in the assay with UACC-62 melanoma, 7.16 µM; in the assay with SK-MEL-5 melanoma it was 21.6 µM; in the assay with SK-OV-3 ovarian, 31.3 µM; in the assay with NCI-H460 lung, 33.8 µM; in the assay on MCF7 breast, 37.2 µM. For the same compound, the TGI was 17.9 µM in the assay with RXF 393 renal, 38.8 µM in the assay on EKVX NSCLC and greater than 100 µM in the assay on NCI/ADR-RES ovarian.
As to `O=C1CSC(=S)N1Cc1cccnc1`, the GI50 in the assay on HCT-116 colon is 3.36 µM; in the assay with HT29 colon it was 3.9 µM; in the assay with UACC-62 melanoma, 11.3 µM; in the assay with SK-MEL-5 melanoma, 24.5 µM; with SK-OV-3 ovarian, 35.8 µM; in the assay with NCI-H460 lung, 18.4 µM. For the same compound, the results for the GI50 in the assay on MCF7 breast, with RXF 393 renal and in the assay with NCI/ADR-RES ovarian were 2.43 µM, 6.11 µM and 24 µM, respectively. Also, the TGI in the assay on HCT-116 colon is 11 µM; with HT29 colon, 11.9 µM; with UACC-62 melanoma, 24.7 µM; in the assay with SK-MEL-5 melanoma it was 71.6 µM; in the assay on SK-OV-3 ovarian, greater than 100 µM; in the assay with NCI-H460 lung, 48.7 µM. The TGI in the assay with MCF7 breast was 12.8 µM; with RXF 393 renal, 24.2 µM; with NCI/ADR-RES ovarian, greater than 100 µM.
For `COc1cc(C(=O)/C=C/c2c(-c3ccc(F)cc3)nc3ncccn23)cc(OC)c1OC`, the GI50 with HCT-116 colon is 1.53 µM; in the assay on HT29 colon it was 2.52 µM; in the assay with SK-OV-3 ovarian it was 2.64 µM; in the assay on MCF7 breast, 1.61 µM; in the assay on RXF 393 renal, 1.44 µM; in the assay on EKVX NSCLC it was 2.71 µM. In addition, the GI50 with NCI/ADR-RES ovarian is 1.58 µM. For the same compound, the TGI was 4.45 µM with HCT-116 colon; 6.25 µM with HT29 colon; 6.7 µM in the assay with SK-OV-3 ovarian; 15.6 µM in the assay with MCF7 breast; 4.09 µM in the assay with RXF 393 renal; greater than 100 µM in the assay on EKVX NSCLC. Moreover, the TGI with NCI/ADR-RES ovarian worked out at 5.11 µM.

For the origin of these results see PubChem BioAssay (NCI).
